The source of these data is the supplement of paper PMC8967900.
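Also: ALL cell lines in 384-well plates, five doses spanning 10,000-fold, each plate scaled between vehicle and 100 µmol/L benzalkonium chloride controls, sDSS an adapted area-under-curve metric.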

One assay deals with CCRF-CEM. As to the kind of experiment: selective drug sensitivity score (sDSS, relative to normal bone marrow) (sDSS (score)); higher = more potent and effective on the cell line relative to normal bone marrow cells. As to conditions: 72 h.
Turning to `COc1cc(CCc2cc(NC(=O)c3ccc(N4CC(C)NC(C)C4)cc3)n[nH]2)cc(OC)c1` (stereo not drawn) [AZD4547] (top concentration 1000 nM), the “selective drug sensitivity score” value was -0.14.
In the case of `CN(C)C(=O)c1ccc(S(=O)(=O)c2ccc(NC(=O)[C@@](C)(O)C(F)(F)F)c(Cl)c2)cc1` [AZD7545] (top concentration 10000 nM), the “selective drug sensitivity score” value came to 0.
`COc1cc(C)c(/C=C/C(C)=C/C=C/C(C)=C/C(=O)O)c(C)c1C` [Acitretin] (top concentration 10000 nM): the “selective drug sensitivity score” value was -1.
With `CCC1(c2ccc(N)cc2)CCC(=O)NC1=O` (stereo not drawn) [Aminoglutethimide] (top concentration 10000 nM), the “selective drug sensitivity score” value worked out at 0.
As for `CNC(=O)c1ccc(N2C(=S)N(c3cnc(C#N)c(C(F)(F)F)c3)C(=O)C23CCC3)cc1F` [Apalutamide] (top concentration 10000 nM), the “selective drug sensitivity score” value was 0.
Still for that read-out and setting: to `N#CC1(c2ccc(NC(=O)c3cccnc3NCc3ccncc3)cc2)CCCC1` [Apatinib] (top concentration 10000 nM) belongs 0; to `Cc1nc2cccc(N)c2c(=O)n1C1CCC(=O)NC1=O` (stereo not drawn) [Avadomide (CC122)] (top concentration 10000 nM), 0.9; to `Nc1nc(Nc2ccc3c(c2)CC[C@@H](N2CCCC2)CC3)nn1-c1cc2c(nn1)-c1ccccc1CCC2` [BGB324] (top concentration 10000 nM), 1.92.
For `CC1(C)C(C(=O)Nc2ccc(S(=O)(=O)c3ccc(NC(=O)C4C(C)(C)C4(C)C)cc3)cc2)C1(C)C` [BRD7116] (top concentration 10000 nM), the “selective drug sensitivity score” value turned out to be 1.16.
`CCS(=O)(=O)N1CC(CC#N)(n2cc(-c3ncnc4[nH]ccc34)cn2)C1` [Baricitinib] (top concentration 2500 nM): the “selective drug sensitivity score” value is -1.94.

The test system of another assay is CCRF-HSB2. The assay is described as above. As to conditions: 72 h.
With `CNC(=O)c1ccc(C)c(-n2c(C)cc(OCc3ccc(F)cc3F)c(Br)c2=O)c1` (top concentration 1000 nM), the “selective drug sensitivity score” value was 0.
As to `CONC(=O)c1ccccc1Nc1cc(Nc2cc(C)nn2C(C)C)ncc1Cl` (top concentration 1000 nM), the “selective drug sensitivity score” value is -0.94.
Regarding `CCOc1ccn(-c2ccc(F)cc2)c(=O)c1C(=O)Nc1ccc(Oc2ccnc(N)c2Cl)c(F)c1` (top concentration 2500 nM), the “selective drug sensitivity score” value worked out at 3.2.
Regarding `CC[C@@H]1[C@H](F)C(=O)N[C@@H]1COc1nccc2cc(C(N)=O)c(OC)cc12` (top concentration 10000 nM), the “selective drug sensitivity score” value was found to be 1.88.
With `C[C@H]1C[C@@H](n2c(Nc3ccc(OC(F)(F)F)cc3)nc3cc(CCC(=O)O)ccc32)CC(C)(C)C1` (top concentration 10000 nM), the “selective drug sensitivity score” value came to 2.56.
Regarding `O=C(NCc1ccncc1)C12CC3CC(C1)CC(c1ccc(Cl)cc1)(C3)C2` (top concentration 50000 nM), the “selective drug sensitivity score” value was 2.68.
Take `O=C(O)c1ccc(CN2CCC(CN[C@@H]3C[C@H]3c3ccccc3)CC2)cc1` (top concentration 100000 nM): the “selective drug sensitivity score” value is -0.12.
As for `COc1cc(N2CCN(C)CC2)ccc1Nc1nccc(-c2cn(C)c3cnccc23)n1` [AZ191] (top concentration 10000 nM), the “selective drug sensitivity score” value is 1.18.
As for `Cc1cc(Nc2nc(N[C@@H](C)c3ncc(F)cn3)ncc2Cl)[nH]n1` [AZD1480] (top concentration 1000 nM), the “selective drug sensitivity score” value is -1.78.
Still for that read-out and setting: under `COc1cc(CCc2cc(NC(=O)c3ccc(N4CC(C)NC(C)C4)cc3)n[nH]2)cc(OC)c1` (stereo not drawn) [AZD4547] (top concentration 1000 nM) stands -0.14; under `CN(C)C(=O)c1ccc(S(=O)(=O)c2ccc(NC(=O)[C@@](C)(O)C(F)(F)F)c(Cl)c2)cc1` [AZD7545] (top concentration 10000 nM), 1.3.
On to `COc1cc(C)c(/C=C/C(C)=C/C=C/C(C)=C/C(=O)O)c(C)c1C` [Acitretin] (top concentration 10000 nM), for which the “selective drug sensitivity score” value amounted to 0.
Same read-out and setting: under `CCC1(c2ccc(N)cc2)CCC(=O)NC1=O` (stereo not drawn) [Aminoglutethimide] (top concentration 10000 nM) stands 0; under `CNC(=O)c1ccc(N2C(=S)N(c3cnc(C#N)c(C(F)(F)F)c3)C(=O)C23CCC3)cc1F` [Apalutamide] (top concentration 10000 nM), 0; under `N#CC1(c2ccc(NC(=O)c3cccnc3NCc3ccncc3)cc2)CCCC1` [Apatinib] (top concentration 10000 nM), 0.3.
Consider `Cc1nc2cccc(N)c2c(=O)n1C1CCC(=O)NC1=O` (stereo not drawn) [Avadomide (CC122)] (top concentration 10000 nM), for which the “selective drug sensitivity score” value was found to be 0.
On to `Nc1nc(Nc2ccc3c(c2)CC[C@@H](N2CCCC2)CC3)nn1-c1cc2c(nn1)-c1ccccc1CCC2` [BGB324] (top concentration 10000 nM), for which the “selective drug sensitivity score” value came to 2.32.
As for `CC1(C)C(C(=O)Nc2ccc(S(=O)(=O)c3ccc(NC(=O)C4C(C)(C)C4(C)C)cc3)cc2)C1(C)C` [BRD7116] (top concentration 10000 nM), the “selective drug sensitivity score” value was 0.16.
Consider `CCS(=O)(=O)N1CC(CC#N)(n2cc(-c3ncnc4[nH]ccc34)cn2)C1` [Baricitinib] (top concentration 2500 nM), for which the “selective drug sensitivity score” value is -1.94.

For the next assay, the system named is COG-LL-332h. Described as above. As to conditions: 72 h.
As to `CNC(=O)c1ccc(C)c(-n2c(C)cc(OCc3ccc(F)cc3F)c(Br)c2=O)c1` (top concentration 1000 nM), the “selective drug sensitivity score” value was 0.
`CONC(=O)c1ccccc1Nc1cc(Nc2cc(C)nn2C(C)C)ncc1Cl` (top concentration 1000 nM): the “selective drug sensitivity score” value is -0.94.
`CCOc1ccn(-c2ccc(F)cc2)c(=O)c1C(=O)Nc1ccc(Oc2ccnc(N)c2Cl)c(F)c1` (top concentration 2500 nM): the “selective drug sensitivity score” value was 3.2.
On to `CC[C@@H]1[C@H](F)C(=O)N[C@@H]1COc1nccc2cc(C(N)=O)c(OC)cc12` (top concentration 10000 nM), for which the “selective drug sensitivity score” value was -0.42.
For the molecule `C[C@H]1C[C@@H](n2c(Nc3ccc(OC(F)(F)F)cc3)nc3cc(CCC(=O)O)ccc32)CC(C)(C)C1` (top concentration 10000 nM), the “selective drug sensitivity score” value was 1.36.
On to `O=C(NCc1ccncc1)C12CC3CC(C1)CC(c1ccc(Cl)cc1)(C3)C2` (top concentration 50000 nM), for which the “selective drug sensitivity score” value stood at 2.08.
For `O=C(O)c1ccc(CN2CCC(CN[C@@H]3C[C@H]3c3ccccc3)CC2)cc1` (top concentration 100000 nM), the “selective drug sensitivity score” value is 0.08.
Still for that read-out and setting: under `COc1cc(N2CCN(C)CC2)ccc1Nc1nccc(-c2cn(C)c3cnccc23)n1` [AZ191] (top concentration 10000 nM) stands -0.02; under `Cc1cc(Nc2nc(N[C@@H](C)c3ncc(F)cn3)ncc2Cl)[nH]n1` [AZD1480] (top concentration 1000 nM), -3.08; under `COc1cc(CCc2cc(NC(=O)c3ccc(N4CC(C)NC(C)C4)cc3)n[nH]2)cc(OC)c1` (stereo not drawn) [AZD4547] (top concentration 1000 nM), -0.04.
On to `CN(C)C(=O)c1ccc(S(=O)(=O)c2ccc(NC(=O)[C@@](C)(O)C(F)(F)F)c(Cl)c2)cc1` [AZD7545] (top concentration 10000 nM), for which the “selective drug sensitivity score” value is 0.5.
Turning to `COc1cc(C)c(/C=C/C(C)=C/C=C/C(C)=C/C(=O)O)c(C)c1C` [Acitretin] (top concentration 10000 nM), the “selective drug sensitivity score” value stood at 0.
With `CCC1(c2ccc(N)cc2)CCC(=O)NC1=O` (stereo not drawn) [Aminoglutethimide] (top concentration 10000 nM), the “selective drug sensitivity score” value came out at 0.
Regarding `CNC(=O)c1ccc(N2C(=S)N(c3cnc(C#N)c(C(F)(F)F)c3)C(=O)C23CCC3)cc1F` [Apalutamide] (top concentration 10000 nM), the “selective drug sensitivity score” value is 0.
On to `N#CC1(c2ccc(NC(=O)c3cccnc3NCc3ccncc3)cc2)CCCC1` [Apatinib] (top concentration 10000 nM), for which the “selective drug sensitivity score” value worked out at 0.
`Cc1nc2cccc(N)c2c(=O)n1C1CCC(=O)NC1=O` (stereo not drawn) [Avadomide (CC122)] (top concentration 10000 nM): the “selective drug sensitivity score” value is 0.
For `Nc1nc(Nc2ccc3c(c2)CC[C@@H](N2CCCC2)CC3)nn1-c1cc2c(nn1)-c1ccccc1CCC2` [BGB324] (top concentration 10000 nM), the “selective drug sensitivity score” value is 2.22.
The same measure, in the same setting: under `CC1(C)C(C(=O)Nc2ccc(S(=O)(=O)c3ccc(NC(=O)C4C(C)(C)C4(C)C)cc3)cc2)C1(C)C` [BRD7116] (top concentration 10000 nM) stands -0.24.
For the molecule `CCS(=O)(=O)N1CC(CC#N)(n2cc(-c3ncnc4[nH]ccc34)cn2)C1` [Baricitinib] (top concentration 2500 nM), the “selective drug sensitivity score” value was found to be 0.16.
